Here are results for 38 molecules from patent US9212164B2, “Pesticidal compositions and processes related thereto” (Dow AgroSciences LLC, priority 2012, dated 2015).

The subject of assay [1] is Cabbage Looper (CL) (Trichoplusia ni). Kind of assay: Bioassays on CL, 128-well diet tray assay. The note with it: 168 h, 50 μg/cm^2 on artificial diet, second instar larvae, five to seven days, 25° C., read-out: CL Rating (percent mortality). Type of assay: in vivo. Here is the method:
(§1) Certain molecules disclosed in this document were tested against BAW, CEW and CL using procedures described in the following examples. In the reporting of the results, the “BAW & CEW & CL Rating Table” was used (See Table Section).
Bioassays on CL (Trichoplusia ni)
Bioassays on CL were conducted using a 128-well diet tray assay. One to five second instar CL larvae were placed in each well (3 mL) of the diet tray that had been previously filled with 1 mL of artificial diet to which 50 μg/cm^2 of the test compound (dissolved in 50 μL of 90:10 acetone-water mixture) had been applied (to each of eight wells) and then allowed to dry. Trays were covered with a clear self-adhesive cover, and held at 25° C., 14:10 light-dark for five to seven days. Percent mortality was recorded for the larvae in each well; activity in the eight wells was then averaged. The results are indicated in the table entitled “Table 4: Assay Results Part 2” (See Table Section).

Assay [2] relates to Beet Armyworm (BAW) (Spodoptera exigua). Kind of assay: Bioassays on BAW, 128-well diet tray assay. The settings on record: for mortality at 50 µg/cm2: Spodoptera exigua, 168 h, 50 μg/cm^2 on artificial diet, second instar larvae, five to seven days, 25° C., read-out: BAW Rating (percent mortality); for BAW Rating: Beet Armyworm, 128-well diet tray assay, rating C = Not Tested (omitted), D = no activity noticed. The format is in vivo. As to the method: as §1
Bioassays on BAW (Spodoptera exigua)
Bioassays on BAW were conducted using a 128-well diet tray assay. One to five second instar BAW larvae were placed in each well (3 mL) of the diet tray that had been previously filled with 1 mL of artificial diet to which 50 μg/cm^2 of the test compound (dissolved in 50 μL of 90:10 acetone-water mixture) had been applied (to each of eight wells) and then allowed to dry. Trays were covered with a clear self-adhesive cover, and held at 25° C., 14:10 light-dark for five to seven days. Percent mortality was recorded for the larvae in each well; activity in the eight wells was then averaged. The results are indicated in the tables entitled “Table 3: Assay Results Part 1” and “Table 4: Assay Results Part 2” (See Table Section).

What is called mortality is the percentage killed.

For `O=C(NC1(C(=O)NCC(F)(F)F)CC1)c1ccc(/C=C/C(c2cccc(OC(F)(F)F)c2)C(F)(F)F)cc1Br` (centres unmarked) [Compound P153], the mortality at 50 µg/cm2 in assay [1] and in assay [2] was 50 to 100% in each case. In the case of `CCNC(=O)C1(NC(=O)c2ccc(/C=C/C(c3cc(Cl)c(Cl)c(Cl)c3)C(F)(F)F)cc2C)CC1` (centres unmarked) [Compound P1026], the mortality at 50 µg/cm2 in assay [1] and in assay [2] was 50 to 100% each time. `O=C(NC1(C(=O)NCC(F)(F)F)CC1)c1ccc(/C=C/C(c2ccc(Br)c(Br)c2)C(F)(F)F)cc1Br` (centres unmarked) [Compound P423]: the mortality at 50 µg/cm2 in assay [1] and in assay [2] was 50 to 100% in each case.

With `N#Cc1cc(C(/C=C/c2ccc(C(=O)NC3(C(=O)NCC(F)(F)F)CC3)c(C(F)(F)F)c2)C(F)(F)F)ccc1F` (centres unmarked) [Compound P515], the mortality at 50 µg/cm2 in assay [1] and in assay [2] was 50 to 100% each time.

`O=C(NC1(C(=O)NCC(F)(F)F)CC1)c1ccc(/C=C/C(c2ccc(Cl)c([N+](=O)[O-])c2)C(F)(F)F)cc1C(F)(F)F` (centres unmarked) [Compound P470]: the mortality at 50 µg/cm2 in assay [1] and in assay [2] was 50 to 100% in each case. For the molecule `CCCN(C)C(=O)C1(NC(=O)c2ccc(/C=C/C(c3cc(Cl)c(Cl)c(Cl)c3)C(F)(F)F)cc2Br)CC1` (centres unmarked) [FA42], the mortality at 50 µg/cm2 in assay [1] and in assay [2] was 50 to 100% in each case. On to `COc1ccccc1NC(=O)C1(NC(=O)c2ccc(/C=C/C(c3cc(Cl)c(Cl)c(Cl)c3)C(F)(F)F)cc2Br)CC1` (centres unmarked) [FA39], for which the mortality at 50 µg/cm2 in assay [1] and in assay [2] was 0% each time. On to `CCNC(=O)C1(NC(=O)c2ccc(/C=C/C(c3cc(Cl)c(Cl)c(Cl)c3)C(F)(F)F)cc2C(F)(F)F)CC1` (centres unmarked) [Compound P1025], for which the mortality at 50 µg/cm2 in assay [1] and in assay [2] was 50 to 100% in each case. With `O=C(NC1(C(=O)NCc2ccccc2Cl)CC1)c1ccc(/C=C/C(c2cc(Cl)c(Cl)c(Cl)c2)C(F)(F)F)cc1Br` (centres unmarked) [FA29], the mortality at 50 µg/cm2 in assay [1] and in assay [2] was 50 to 100% in each case. With `O=C(NC1(C(=O)NCC(F)(F)F)CC1)c1ccc(/C=C/C(c2cc(Cl)cc(Br)c2)C(F)(F)F)cc1C(F)(F)F` (centres unmarked) [Compound P380], the mortality at 50 µg/cm2 in assay [1] and in assay [2] was 50 to 100% each time.

Take `O=C(NC1(C(=O)NCc2ccc(Cl)cc2)CC1)c1ccc(/C=C/C(c2cc(Cl)c(Cl)c(Cl)c2)C(F)(F)F)cc1Br` (centres unmarked) [FA16]: the mortality at 50 µg/cm2 in assay [1] and in assay [2] was 50 to 100% each time. `O=C(NC1(C(=O)NCCC(F)(F)F)CC1)c1ccc(/C=C/C(c2cc(Cl)c(Cl)c(Cl)c2)C(F)(F)F)cc1C(F)(F)F` (centres unmarked) [Compound P1035]: the mortality at 50 µg/cm2 in assay [1] and in assay [2] was 50 to 100% each time.

As to `O=C(NC1(C(=O)NCC(F)(F)F)CC1)c1ccc(/C=C/C(c2cc(Br)c(Cl)c(Br)c2)C(F)(F)F)cc1Br` (centres unmarked) [FA6], the mortality at 50 µg/cm2 in assay [1] and in assay [2] was 50 to 100% throughout. As for `CC(C)CNC(=O)C1(NC(=O)c2ccc(/C=C/C(c3cc(Cl)c(Cl)c(Cl)c3)C(F)(F)F)cc2Br)CC1` (centres unmarked) [FA30], the mortality at 50 µg/cm2 in assay [1] and in assay [2] was 50 to 100% throughout.

Consider `O=C(NC1(C(=O)NCC(F)(F)F)CC1)c1ccc(/C=C/C(c2ccc(Br)c(Br)c2)C(F)(F)F)cc1C(F)(F)F` (centres unmarked) [Compound P425], for which the mortality at 50 µg/cm2 in assay [1] and in assay [2] was 50 to 100% in each case. Consider `O=C(NC1(C(=O)NCC(F)(F)F)CC1)c1ccc(/C=C/C(c2cc(Cl)cc(Cl)c2)C(F)(F)C(F)(F)F)cc1Br` (centres unmarked) [Compound P1043], for which the mortality at 50 µg/cm2 in assay [1] and in assay [2] was 50 to 100% each time.

As to `COCCNC(=O)C1(NC(=O)c2ccc(/C=C/C(c3cc(Cl)c(Cl)c(Cl)c3)C(F)(F)F)cc2Br)CC1` (centres unmarked) [FA28], the mortality at 50 µg/cm2 in assay [1] and in assay [2] was 50 to 100% in each case. `COc1cccc(CNC(=O)C2(NC(=O)c3ccc(/C=C/C(c4cc(Cl)c(Cl)c(Cl)c4)C(F)(F)F)cc3Br)CC2)c1` (centres unmarked) [FA35]: the mortality at 50 µg/cm2 in assay [1] and in assay [2] was 50 to 100% in each case. Take `CCNC(=O)C1(NC(=O)c2ccc(/C=C/C(c3cc(Cl)c(Cl)c(Cl)c3)C(F)(F)F)cc2Br)CC1` (centres unmarked) [Compound P1023]: the mortality at 50 µg/cm2 in assay [1] and in assay [2] was 50 to 100% in each case. For the molecule `O=C(NC1(C(=O)NCC(F)(F)F)CC1)c1ccc(/C=C/C(c2cc(Cl)c(Cl)c(Cl)c2)C(F)(F)C(F)(F)F)cc1C(F)(F)F` (centres unmarked) [Compound P1005], the mortality at 50 µg/cm2 in assay [1] and in assay [2] was 50 to 100% in each case. For `O=C(NC1(C(=O)NCc2cccc(C(F)(F)F)c2)CC1)c1ccc(/C=C/C(c2cc(Cl)c(Cl)c(Cl)c2)C(F)(F)F)cc1Br` (centres unmarked) [FA26], the mortality at 50 µg/cm2 in assay [1] and in assay [2] was 50 to 100% throughout. On to `O=C(NC1(C(=O)NCC(F)(F)F)CC1)c1ccc(/C=C/C(c2cc(Br)c(Cl)c(Br)c2)C(F)(F)F)cc1C(F)(F)F` (centres unmarked) [FA7], for which the mortality at 50 µg/cm2 in assay [1] and in assay [2] was 50 to 100% each time. For the molecule `O=C(NC1(C(=O)NCC(F)(F)F)CC1)c1ccc(/C=C/C(c2cccc(OC(F)(F)F)c2)C(F)(F)F)cc1C(F)(F)F` (centres unmarked) [Compound P155], the mortality at 50 µg/cm2 in assay [1] and in assay [2] was 50 to 100% in each case.

For `O=C(NC1(C(=O)NC2COC2)CC1)c1ccc(/C=C/C(c2cc(Cl)c(Cl)c(Cl)c2)C(F)(F)F)cc1Br` (centres unmarked) [FA20], the mortality at 50 µg/cm2 in assay [1] and in assay [2] was 50 to 100% each time. Regarding `CCNC(=O)NCc1ccc(/C=C/C(c2cc(Cl)cc(Cl)c2)C(F)(F)F)cc1Cl` (centres unmarked) [CC31, (E)-1-(2-Chloro-4-(3-(3,5-dichlorophenyl)-4,4,4-trifluorobut-1-en-1-yl)benzyl)-3-ethylurea], the “BAW Rating” value in assay [2] is “B (More than 0 - Less than 50)”. Take `O=C(NC1(C(=O)NCC(F)(F)F)CC1)c1ccc(/C=C/C(c2ccc(Cl)c(Cl)c2)C(F)(F)F)cc1Br` (centres unmarked) [Compound P1093]: the mortality at 50 µg/cm2 in assay [1] and in assay [2] was 50 to 100% in each case. Regarding `CC(F)(F)C(/C=C/c1ccc(C(=O)NC2(C(=O)NCC(F)(F)F)CC2)c(C(F)(F)F)c1)c1ccc(Cl)c(Cl)c1` (centres unmarked) [FA9], the mortality at 50 µg/cm2 in assay [1] and in assay [2] was 50 to 100% throughout. Take `Cc1cc(C(/C=C/c2ccc(C(=O)NC3(C(=O)NCC(F)(F)F)CC3)c(C(F)(F)F)c2)C(F)(F)F)ccc1F` (centres unmarked) [Compound P336]: the mortality at 50 µg/cm2 in assay [1] and in assay [2] was 50 to 100% each time. In the case of `O=C(NC1(C(=O)Nc2cccc(C(F)(F)F)c2)CC1)c1ccc(/C=C/C(c2cc(Cl)c(Cl)c(Cl)c2)C(F)(F)F)cc1Br` (centres unmarked) [FA37], the mortality at 50 µg/cm2 was 0% in assay [1] and 0 to 50% in assay [2]. Regarding `O=C(NC1(C(=O)NCC(F)(F)F)CC1)c1ccc(/C=C/C(c2cc(Cl)c(Cl)c(Cl)c2)C(F)(F)C(F)(F)F)cc1Br` (centres unmarked) [Compound P1003], the mortality at 50 µg/cm2 in assay [1] and in assay [2] was 50 to 100% in each case.

Regarding `Cc1cc(C(/C=C/c2ccc(C(=O)NC3(C(=O)NCC(F)(F)F)CC3)c(C(F)(F)F)c2)C(F)(F)F)cc(C)c1F` (centres unmarked) [Compound P335], the mortality at 50 µg/cm2 in assay [1] and in assay [2] was 50 to 100% each time. For the molecule `O=C(NC1(C(=O)NCC(F)F)CC1)c1ccc(/C=C/C(c2cc(Cl)c(Cl)c(Cl)c2)C(F)(F)F)cc1C(F)(F)F` (centres unmarked) [Compound P1015], the mortality at 50 µg/cm2 in assay [1] and in assay [2] was 50 to 100% in each case. Consider `O=C(NC1(C(=O)NCC2CCOC2)CC1)c1ccc(/C=C/C(c2cc(Cl)c(Cl)c(Cl)c2)C(F)(F)F)cc1Br` (centres unmarked) [FA21], for which the mortality at 50 µg/cm2 in assay [1] and in assay [2] was 50 to 100% throughout. Consider `O=C(NC1(C(=O)NCC(F)F)CC1)c1ccc(/C=C/C(c2cc(Br)cc(Br)c2)C(F)(F)F)cc1Br` (centres unmarked) [Compound P1193], for which the mortality at 50 µg/cm2 in assay [1] and in assay [2] was 50 to 100% in each case. Turning to `N#CCN1CCC(NC(=O)c2ccc(/C=C/C(c3cc(Cl)c(Cl)c(Cl)c3)C(F)(F)F)cc2Br)CC1` (centres unmarked) [AC107], the “BAW Rating” value in assay [2] is “B (More than 0 - Less than 50)”.

With `FC(F)(F)C(/C=C/c1ccc(-n2cncn2)cc1)c1ccccc1` (centres unmarked) [DC3], in assay [2], the “BAW Rating” value is “B (More than 0 - Less than 50)”. On the same count and under the same terms, as for `O=C(NCCc1ccc(Cl)nc1)c1ccc(/C=C/C(c2cc(Cl)c(Cl)c(Cl)c2)C(F)(F)F)cc1Br` (centres unmarked) [AC113], the entry is “B (More than 0 - Less than 50)”.

For the molecule `O=C(NC1CCN(C2COC2)CC1)c1ccc(/C=C/C(c2cc(Cl)c(Cl)c(Cl)c2)C(F)(F)F)cc1Br` (centres unmarked) [AC108, (E)-2-Bromo-N-(1-(oxetan-3-yl)piperidin-4-yl)-4-(4,4,4-trifluoro-3-(3,4,5-trichlorophenyl)but-1-en-1-yl)benzamide], the “BAW Rating” value in assay [2] is reported as “B (More than 0 - Less than 50)”.
